Measurements as given in publication PMC6107105, “Update on drug development targeting parasite cysteine proteases” (PLoS Neglected Tropical Diseases, 2018).

Tests used:
Sprague-Dawley rats [1] = assay: Acute intravenous non-GLP toxicity study in rats (SRI study M001-98); format: in vivo; details: male and female Sprague-Dawley rats
Sprague-Dawley rats [2] = assay: 14-day GLP toxicity study in Sprague-Dawley rats (SRI study M602-08); format: in vivo
[3] = parameters: species or system NHPs; details: in vivo, 200 mg/kg
dogs = assay: 7-day non-GLP toxicity study in dogs (SRI study M138-00); format: in vivo; details: orally as solid in gelatin capsules, 100 mg/kg daily for 7 days, 2 dogs
rats = assay: 7-Day non-GLP Toxicity Study in Rats (SRI study M587-08); format: in vivo; details: 50 or 150 mg/Kg/day for 7 days
cynomolgus monkeys = assay: Pilot multiple dose safety/pharmacokinetic 7-day non-GLP study in cynomolgus monkeys (SRI study M158-01); format: in vivo; details: 200 mg/Kg once daily for 7 days

Compound: CN1CCN(C(=O)N[C@@H](Cc2ccccc2)C(=O)N[C@H](/C=C/S(=O)(=O)c2ccccc2)CCc2ccccc2)CC1.Cl [K777 HCl]
- dose producing mortality and adverse clinical signs (Sprague-Dawley rats [1]): K777 HCl administered IV to male and female Sprague-Dawley rats produced mortality and adverse clinical signs at 150 mg/Kg and higher.
- mortality or treatment-related adverse clinical signs (Sprague-Dawley rats [2]; 14-day, any dose level, SRI study M602-08): No mortality or treatment-related adverse clinical signs were observed following the administration of K777 HCl at any dose level.
- changes in clinical chemistry parameters (total protein, potassium, phosphorus, creatinine increases; blood urea nitrogen decrease) (Sprague-Dawley rats [2]; rat, in vivo): not considered biologically significant
- effects on hematology, urinalysis, or ophthalmology parameters (Sprague-Dawley rats [2]; rat, in vivo): no treatment-related adverse effects
- histopathology (Sprague-Dawley rats [2]; rat, in vivo): No treatment-related histopathological abnormalities
- AUC [3]: 32500 ng·h/mL
- Cmax [3]: 4500 ng/mL
- Tmax [3]: 4 h
- half-life [3]: ~4 h
- mortality or morbidity (dogs): K777 HCl was administered orally as a solid in gelatin capsules to 2 dogs (1 male and 1 female) at 100 mg/kg daily for 7 days. No mortality or morbidity was observed in this study.
- tolerability (rats; male and female rats, SRI study M587-08): well tolerated
- liver effects at the doses employed (rats; rats): mild and transient
- target organ of toxicity (rats; rats): liver
- mortality or morbidity (cynomolgus monkeys): No mortality or morbidity was observed following the administration of K777 HCl at 200 mg/Kg once daily for 7 days.
